Experimental data published in patent publication US9873670B2, “Arylquinoline and analog compounds and use thereof to treat cancer” (UNIVERSITY OF KENTUCKY RESEARCH FOUNDATION, priority 2013, dated 2018).

How the values were obtained:
Format in all cases: cell-based
[1] = test system: panel of lung tumor cells; experiment: Par-4 secretion from lung tumor cells
[2] = test system: cancer cells co-cultured with Par-4+/+ MEFs; experiment: Apoptosis in co-cultures of Par-4+/+ MEFs and cancer cells
Procedure: Top: Cancer cells were co-cultured with MEFs and treated with Arylquin 1 (500 nM) or vehicle and tested for apoptosis. Bottom: Serum from mice injected with Arylquin 1 (Aq) or corn oil vehicle (V), was examined by Western blot analysis (not shown). Aliquots of serum from these mice were either directly added to the growth medium of cells in culture, or incubated with the indicated antibody, and then added to the growth medium of PC-3 MM2 cells to test for apoptosis.
See Hebbar, N., Wang, C. & Rangnekar, V. M. J Cell Phys 227, 3715-3721 (2012) and Shrestha-Bhattarai, T., Hebbar, N. & Rangnekar, V. M. Cancer Cell 24, 3-5 (2013). A total of three independent experiments were performed; and approximately 500 cells were scored in each experiment for apoptosis under a fluorescent microscope. Cell surface GRP78 expression on the cancer cell surface was quantified by FACS analysis in the Flow Cytometry Shared Resource Facility, Markey Cancer Center as previously described. See Hebbar, N., Wang, C. & Rangnekar, V. M. J Cell Phys 227, 3715-3721 (2012).

[3] = target: T1, binding of Par-4 to vimentin (Homo sapiens, UniProt P08670); experiment: Co-immunoprecipitation and immunocytochemistry of Par-4 and vimentin; conditions: cells treated with compound
T1 construct: the Par-4 antibody co-immunoprecipitated endogenous vimentin; endogenous in cells
Procedure: Co-Immunoprecipitation and Western blot analysis: Protein extracted from cell lysates was filtered, pre-cleared with 25 μL (bed volume) of protein G-Sepharose beads and immunoprecipitated with 1 μg of respective antibodies. The eluted proteins were resolved by SDS-PAGE, and subjected to Western blot analysis as described.

T1 sequence (P08670 2-466 limits assumed): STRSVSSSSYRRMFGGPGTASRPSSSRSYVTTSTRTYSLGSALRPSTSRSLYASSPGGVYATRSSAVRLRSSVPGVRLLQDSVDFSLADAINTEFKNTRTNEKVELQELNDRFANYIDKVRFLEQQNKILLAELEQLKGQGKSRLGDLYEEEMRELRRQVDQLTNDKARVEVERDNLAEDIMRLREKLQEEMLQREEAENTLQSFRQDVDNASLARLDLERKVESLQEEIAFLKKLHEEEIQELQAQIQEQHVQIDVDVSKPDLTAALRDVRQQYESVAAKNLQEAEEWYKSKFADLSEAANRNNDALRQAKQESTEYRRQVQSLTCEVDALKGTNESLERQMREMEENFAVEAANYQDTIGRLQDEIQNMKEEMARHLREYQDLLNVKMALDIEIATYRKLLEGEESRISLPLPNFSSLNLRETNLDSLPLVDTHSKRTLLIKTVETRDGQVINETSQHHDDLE

CN(C)c1ccc2cc(-c3ccccc3F)c(N)nc2c1 [Arylquin 1, 3-(2-fluorophenyl)-N^7,N^7-dimethylquinoline-2,7-diamine]
Par-4 secretion [1]: failed to induce the secretion of Par-4
apoptosis of cancer cells in co-culture ([2]; 500 nM, Par-4+/+ MEFs, relative to vehicle): resulted in apoptosis of the cancer cells
paracrine apoptosis of lung cancer cells by Par-4 secreted from normal cells ([2]; p53-wild type, p53-deficient and oncogenic K-ras lung cancer cells): adequate to induce paracrine apoptosis
Par-4 co-immunoprecipitation and co-localization with vimentin [3]: neither Par-4 co-immunoprecipitation nor co-localization with vimentin
vimentin expression [3]: not associated with inhibition of vimentin expression
